Test results taken from US20170122958A1, “Enzymes Functional Probes” (University of Dundee, priority 2013, published 2017).

Legend:
[1] = system: WT and mutants (Leu to Ala, Leu to Val and Leu to Ile) of Brd2(2); test: ITC of compound into protein (FIG. 16); assay type: binding, human; conditions: 250 μM compound into 25 μM protein; result in words
Description: To investigate the utility of the new compounds further, the inventors performed isothermal titration experiments by titrating 250 μM compound solutions (AL, ME-Am1, ET-Am1, ME-Am2, ET-Am2, 9-ME, 9-ET, 9-ME-Am1 and 9-ET-Am1) 25 μM protein solutions (WT and mutants (Leu to Ala, Leu to Val and Leu to Ile) of Brd2(2)).
ITC experiments were carried out on a ITC200 instrument from MicroCal™ Experiments were conducted at 3 different temperatures 15° C., 25° C. and 30° C., while stirring at 1000 rpm. Buffers of proteins, peptide and compounds were matched to 20 mM HEPES pH 7.5 at 25° C. and 100 mM NaCl. Frozen protein was buffer exchanged as described for the DSF experiments. Each titration comprised 1 initial injection of 0.4 μl lasting 0.8 s, followed by 19 injections of 2 μl lasting 4 s each at 2 min intervals. The initial injection was discarded during data analysis. Standard and reverse titrations were conducted depending on the binding partners.
All the data was fitted to a single binding site model using the Microcal LLC ITC200 Origin software provided by the manufacturer to yield enthalpies of binding (ΔH) and binding constants (Kas). Further thermodynamic parameters were calculated from these values (changes in entropy ΔS, changes in free energy AG and dissociation constants (Kds)).

Brd2(2)*(Met438-Leu) = biological target: T1, Brd2(2)*(Met438-Leu) (Homo sapiens, UniProt P25440, M438L); test: DSF thermal shift; assay type: binding; conditions: mutant
T1 construct: Plasmids of the eight single BET bromodomain constructs Brd2(1), Brd2(2), Brd3(1), Brd3(2); His6 (N); made in house; host or cells: E. coli BL21(DE3)
Description: (§1) DSF assays were performed on a LightCycler®480 from Roche or a Mx3005P Real Time PCR machine from Stratagene. Prior to DSF assays, frozen proteins were buffer exchanged using Vivaspin®6 concentrators with a 10 kDa cutoff on a Centrifuge 5430 from Eppendorf at a speed of 6000×g to remove glycerol and to buffer the proteins in 20 mM HEPES pH 7.5 at 25° C. and 100 mM NaCl. SYPRO®Orange from Invitrogen Molecular Probes® was used as a reporter dye to monitor the denaturing process of the proteins. Samples were assayed on a 96-well plate with final protein concentrations of 2 μM for the LightCycler®480 and 6 μM for Mx3005P. Compounds were added at a final concentration of 10 μM for the LightCycler®480 and 30 μM for Mx3005P, while the tetra acetylated histone peptide was added to a final concentration of 100 μM and 300 μM respectively. […] The temperature was raised with a step of 0.6° C. per minute from 37° C. to 95° C. with the LightCycler®480 collecting 39 measurements per ° C., and 1° C. per minute from 25° C. to 95° C. with Mx3005P, collecting fluorescence readings at the end of each interval. Each sample was run in triplicates.
(§2) Collected data was analysed by IGOR Pro 6, a scientific software tool from Wave Metrics, Inc. Analysis was done following the recommendations of Niesen et al.. Fluorescence intensity was plotted as a function of temperature, generating a sigmoidal curve described by a two-state transition from folded to unfolded protein. Curves were fitted by the following sigmoidal equation: […]
(§3) A1 and A2 are the values of minimum and maximum intensities, respectively, x0 is the inflection point and dx is the rate. Fitted curves were differentiated in IGOR Pro 6 and the maximum of the first derivative was identified using the same program. These values correspond to the inflection points of the transition curves and thus to the melting temperatures of the proteins (Tm).

Brd2(1)*(Met165-Leu) = biological target: T2, Brd2(1)*(Met165-Leu) (Homo sapiens, UniProt P25440, M165L); test: DSF thermal shift; assay type: binding; conditions: mutant
T2 construct: Plasmids of the eight single BET bromodomain constructs Brd2(1), Brd2(2), Brd3(1), Brd3(2); His6 (N); made in house; host or cells: E. coli BL21(DE3)
Description: as §1, §2, §3

Brd2(2)*(Met438-Ala) = biological target: T3, Brd2(2)*(Met438-Ala) (Homo sapiens, UniProt P25440, M438A); test: DSF thermal shift; assay type: binding; conditions: mutant
T3 construct: Plasmids of the eight single BET bromodomain constructs Brd2(1), Brd2(2), Brd3(1), Brd3(2); His6 (N); made in house; host or cells: E. coli BL21(DE3)
Description: as §1, §2, §3

Brd2(1)*(Met165Ala) = Brd2(1)*(Met165Ala) (Homo sapiens, UniProt P25440, M165A); test: DSF thermal shift; assay type: binding; design: Plasmids of the eight single BET bromodomain constructs Brd2(1), Brd2(2), Brd3(1), Brd3(2); His6 (N); made in house; host or cells: E. coli BL21(DE3); conditions: mutant
Description: as §1, §2, §3

Brd2(2)*(Trp370Phe) = biological target: T4, Brd2(2)*(Trp370Phe) (Homo sapiens, UniProt P25440, W370F); test: DSF thermal shift; assay type: binding; conditions: mutant
T4 construct: Plasmids of the eight single BET bromodomain constructs Brd2(1), Brd2(2), Brd3(1), Brd3(2); His6 (N); made in house; host or cells: E. coli BL21(DE3)
Description: as §1, with “Prior to DSF assays, frozen proteins were buffer exchanged using Vivaspin®6 concentrators with a 10 kDa cutoff on a Centrifuge 5430 from Eppendorf at a speed of 6000×g to remove glycerol and to buffer the proteins in 20 mM HEPES pH 7.5 at 25° C. and 100 mM NaCl.” left out
as §2, §3

Brd2(1)*(Trp097His) = biological target: T5, Brd2(1)*(Trp097His) (Homo sapiens, UniProt P25440, W97H); test: DSF thermal shift; assay type: binding; conditions: mutant
T5 construct: Plasmids of the eight single BET bromodomain constructs Brd2(1), Brd2(2), Brd3(1), Brd3(2); His6 (N); made in house; host or cells: E. coli BL21(DE3)
Description: as §1, with “Prior to DSF assays, frozen proteins were buffer exchanged using Vivaspin®6 concentrators with a 10 kDa cutoff on a Centrifuge 5430 from Eppendorf at a speed of 6000×g to remove glycerol and to buffer the proteins in 20 mM HEPES pH 7.5 at 25° C. and 100 mM NaCl.” left out
as §2, §3

Brd2(1)*(Trp097Phe) = biological target: T6, Brd2(1)*(Trp097Phe) (Homo sapiens, UniProt P25440, W97F); test: DSF thermal shift; assay type: binding; conditions: mutant
T6 construct: Plasmids of the eight single BET bromodomain constructs Brd2(1), Brd2(2), Brd3(1), Brd3(2); His6 (N); made in house; host or cells: E. coli BL21(DE3)
Description: as §1, with “Prior to DSF assays, frozen proteins were buffer exchanged using Vivaspin®6 concentrators with a 10 kDa cutoff on a Centrifuge 5430 from Eppendorf at a speed of 6000×g to remove glycerol and to buffer the proteins in 20 mM HEPES pH 7.5 at 25° C. and 100 mM NaCl.” left out
as §2, §3

Brd2(2) = biological target: T7, Brd2(2) (Homo sapiens, UniProt P25440); test: DSF thermal shift; assay type: binding; conditions: wild type
T7 construct: Plasmids of the eight single BET bromodomain constructs Brd2(1), Brd2(2), Brd3(1), Brd3(2); His6 (N); made in house; host or cells: E. coli BL21(DE3)
Description: as §1, with “Prior to DSF assays, frozen proteins were buffer exchanged using Vivaspin®6 concentrators with a 10 kDa cutoff on a Centrifuge 5430 from Eppendorf at a speed of 6000×g to remove glycerol and to buffer the proteins in 20 mM HEPES pH 7.5 at 25° C. and 100 mM NaCl.” left out
as §2, §3

Brd2(2)*(Trp370His) = biological target: T8, Brd2(2)*(Trp370His) (Homo sapiens, UniProt P25440, W370H); test: DSF thermal shift; assay type: binding; conditions: mutant
T8 construct: Plasmids of the eight single BET bromodomain constructs Brd2(1), Brd2(2), Brd3(1), Brd3(2); His6 (N); made in house; host or cells: E. coli BL21(DE3)
Description: as §1, with “Prior to DSF assays, frozen proteins were buffer exchanged using Vivaspin®6 concentrators with a 10 kDa cutoff on a Centrifuge 5430 from Eppendorf at a speed of 6000×g to remove glycerol and to buffer the proteins in 20 mM HEPES pH 7.5 at 25° C. and 100 mM NaCl.” left out
as §2, §3

Brd2(1) = biological target: T9, Brd2(1) (Homo sapiens, UniProt P25440); test: DSF thermal shift; assay type: binding; conditions: wild type
T9 construct: Plasmids of the eight single BET bromodomain constructs Brd2(1), Brd2(2), Brd3(1), Brd3(2); His6 (N); made in house; host or cells: E. coli BL21(DE3)
Description: as §1, with “Prior to DSF assays, frozen proteins were buffer exchanged using Vivaspin®6 concentrators with a 10 kDa cutoff on a Centrifuge 5430 from Eppendorf at a speed of 6000×g to remove glycerol and to buffer the proteins in 20 mM HEPES pH 7.5 at 25° C. and 100 mM NaCl.” left out
as §2, §3

T2 sequence (P25440 74-180 M165L limits assumed): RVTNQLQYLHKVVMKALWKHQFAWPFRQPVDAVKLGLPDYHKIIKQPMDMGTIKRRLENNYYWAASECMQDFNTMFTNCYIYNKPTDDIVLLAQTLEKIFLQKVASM
T1 sequence (P25440 344-453 M438L limits assumed): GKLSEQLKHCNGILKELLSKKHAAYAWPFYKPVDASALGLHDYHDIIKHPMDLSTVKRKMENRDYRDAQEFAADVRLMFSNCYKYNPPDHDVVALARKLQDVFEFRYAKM
T7 sequence (P25440 344-453 limits assumed): as the sequence (P25440 344-453 M438L limits assumed) above, with L95M counted along it
T9 sequence (P25440 74-180 limits assumed): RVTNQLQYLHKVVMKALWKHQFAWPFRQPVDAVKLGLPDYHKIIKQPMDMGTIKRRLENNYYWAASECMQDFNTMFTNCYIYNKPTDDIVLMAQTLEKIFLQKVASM
Chain of Brd2(1)*(Met165Ala) (P25440 74-180 M165A limits assumed): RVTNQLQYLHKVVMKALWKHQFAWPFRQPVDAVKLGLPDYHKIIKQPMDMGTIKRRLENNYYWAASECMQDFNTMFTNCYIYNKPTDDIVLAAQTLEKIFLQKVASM
T3 sequence (P25440 344-453 M438A limits assumed): as the sequence (P25440 344-453 M438L limits assumed) above, with L95A counted along it
T6 sequence (P25440 74-180 W97F limits assumed): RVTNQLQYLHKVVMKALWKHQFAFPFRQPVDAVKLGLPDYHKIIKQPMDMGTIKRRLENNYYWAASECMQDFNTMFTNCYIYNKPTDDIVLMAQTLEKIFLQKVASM
T4 sequence (P25440 344-453 W370F limits assumed): as the sequence (P25440 344-453 M438L limits assumed) above, with W27F, L95M counted along it
T8 sequence (P25440 344-453 W370H limits assumed): as the sequence (P25440 344-453 M438L limits assumed) above, with W27H, L95M counted along it
T5 sequence (P25440 74-180 W97H limits assumed): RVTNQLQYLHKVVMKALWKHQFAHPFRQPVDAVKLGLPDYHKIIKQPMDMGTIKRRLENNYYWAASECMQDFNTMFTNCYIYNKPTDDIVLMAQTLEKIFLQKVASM

Compound: CCNC(=O)[C@H](CC)[C@@H]1N=C(c2ccc(Cl)cc2)c2cc(OC)ccc2-n2c(C)nnc21 (racemic) [ET-Am1, (+−) (R)-2-((S)-6-(4-chlorophenyl)-8-methoxy-1-methyl-4H-benzo[f][1,2,4]triazolo[4,3-a][1,4]diazepin-4-yl)-N-ethylbutanamide]
- Selectivity for Brd2(2) mutants relative to wild type by ITC (FIG. 16) [1]: higher selectivity for the mutants relative to wild types

Compound: COc1ccccc1S(=O)(=O)Nc1ccc2c(c1)CN(C)C(=O)N2 [PFI-1, reference compound]
- ΔTm Brd2(2)*(Met165-Leu) (Brd2(2)*(Met438-Leu)): 2.1 ± 0.3 K
- ΔTm Brd2(1)*(Met165-Leu) (Brd2(1)*(Met165-Leu)): 1.3 ± 0.3 K
- ΔTm Brd2(2)*(Met165-Ala) (Brd2(2)*(Met438-Ala)): 1.7 ± 0.1 K
- ΔTm Brd2(1)*(Met165-Ala) (Brd2(1)*(Met165Ala)): 1.6 ± 0.1 K
- ΔTm Brd2(2)*(Tryp370-Phe) (Brd2(2)*(Trp370Phe)): 2.9 ± 0.3 K
- ΔTm Brd2(1)*(Tryp097-His) (Brd2(1)*(Trp097His)): 1.9 ± 0.5 K
- ΔTm Brd2(1)*(Tryp097-Phe) (Brd2(1)*(Trp097Phe)): 2.6 ± 0.4 K
- ΔTm Brd2(2) (Brd2(2)): 4.5 ± 0.2 K
- ΔTm Brd2(2)*(Tryp370-His) (Brd2(2)*(Trp370His)): 1.8 ± 0.0 K
- ΔTm Brd2(1) (Brd2(1)): 4.5 ± 0.3 K

Compound: CCN(CC)C(=O)[C@H](C)[C@@H]1N=C(c2ccc(Cl)cc2)c2cc(OC)ccc2-n2c(C)nnc21 (racemic) [ME-Am2, (+−) (R)-2-((S)-6-(4-chlorophenyl)-8-methoxy-1-methyl-4H-benzo[f][1,2,4]triazolo[4,3-a][1,4]diazepin-4-yl)-N,N-diethylpropanamide]
- Selectivity for Brd2(2) mutants relative to wild type by ITC (FIG. 16) [1]: higher selectivity for the mutants relative to wild types

Compound: CCNC(=O)[C@H](C)[C@@H]1N=C(c2ccc(Cl)cc2)c2ccc(OC)cc2-n2c(C)nnc21 (racemic) [Compound 9-ME-Am1, (+−) (R)-2-((S)-6-(4-chlorophenyl)-9-methoxy-1-methyl-4H-benzo[f][1,2,4]triazolo[4,3-a][1,4]diazepin-4-yl)-N-ethylpropanamide]
- Selectivity for Brd2(2) mutants relative to wild type by ITC (FIG. 16) [1]: higher selectivity for the mutants relative to wild types

Compound: Cc1cc(C)cc(S(=O)(=O)Nc2ccc3c(c2)CN(C)C(=O)N3)c1 [Compound 49, 3,5-dimethyl-N-(3-methyl-2-oxo-1,2,3,4-tetrahydroquinazolin-6-yl)benzenesulfonamide]
- ΔTm Brd2(2)*(Met165-Leu) (Brd2(2)*(Met438-Leu)): 4.9 ± 0.3 K
- ΔTm Brd2(1)*(Met165-Leu) (Brd2(1)*(Met165-Leu)): 4.1 ± 0.6 K
- ΔTm Brd2(2)*(Met165-Ala) (Brd2(2)*(Met438-Ala)): 2.5 ± 0.2 K
- ΔTm Brd2(1)*(Met165-Ala) (Brd2(1)*(Met165Ala)): 1.1 ± 0.5 K
- ΔTm Brd2(2) (Brd2(2)): 2.8 ± 0.2 K
- ΔTm Brd2(1) (Brd2(1)): 2.6 ± 0.5 K
